Data: patent US4371544A, “Pharmaceutical composition containing 1,1,3,5-substituted biuret compound” (Taiho Pharmaceutical Company Limited, priority 1979, dated 1983)
Where two headings read alike, the source gives them in different places.

Experiments:
[1] = Acute toxicity (oral, mice, 7 days observation); assay type: in vivo; conditions: mouse, in vivo
Description: (§1) Next, several tests for determining the pharmacological properties, in that acute toxicity, anti-pyretic activity, analgesic activity and anti-inflammatory activity of the present 1,1,3,5-substituted biuret compounds of the formula (1) were conducted and the test results are shown in Table (2). In the tests, each compounds to be tested was used as a suspension in 0.25% carboxymethylcellulose solution. Methods for testing are explained as follows:
(§2) The ddy strain of male mice (body weight, 20-25 g) were used as test animals. The mice were fasted overnight and the compound to be tested was administered orally. […] The lethal dose (mg/kg, body weight) of the test compound was determined in connection with the death number of mice/the number of mice tested. In Table 2, the values indicated with Δ marks are 50% lethal dose, LD50 (mg/kg, body weight).

[2] = tested on: ddy strain of male mice; assay: Analgesic activity, acetic acid-induced stretching method; assay type: in vivo, mouse (ddy); conditions: for ED50: oral, Δ mark, range in parentheses
Description: as §1
According to the method reported by Koster et al., [Fed. Proc., Vol. 18, pp. 412 (1959)], the ddy strain of male mice (body weight, 20-25 g) were used as test animals. The mice were fasted overnight, 100 mg/kg body weight of the test compound was administered orally, then 1 hour after the administration, 0.2 ml of 0.7% acetic acid solution was injected intraperitoneally. The acetic acid-induced stretching symptom of mouse was observed. Analgesic activity of the test compound was calculated as the inhibitory ratio (%). In Table 2, the values in parentheses show the data obtained from the test by using the dosage other than 100 mg/kg body weight. Further, the values indicated with Δ marks show 50% effective dose, ED50 (mg/kg body weight).

[3] = tested on: ddy strain of male mice; assay: Analgesic activity, Haffner method (morphine threshold dose, clamp); assay type: in vivo, mouse (ddy); conditions: for ED50: oral, Δ mark, range in parentheses; for inhibition in vivo at 200 mg/kg: 200 mg/kg oral; for Analgesic activity, Haffner method, inhibitory ratio / inhibition in vivo at 100 mg/kg: 100 mg/kg oral, 45 minutes before morphine hydrochloride
Description: as §1
According to the modified method reported by Fujimura et. al., [Bulletin of the Institute for Chemical Research, Kyoto University, No. 25, pp. 36 (1951)], the ddy strain of male mice (body weight, 20-25 g) were used as test animals. The mice were fasted overnight, 100 mg/kg body weight of the test compound was administered orally, then 45 minutes after the administration, the threshold amount (1.5-2.5 mg/kg body weight) of morphine hydrochloride was injected subcutaneously. Then 1-hour pain reaction of the mouse caused by a clamp was observed. Analgesic activity of the test compound was calculated as the inhibitory ratio (%). In Table 2, the values in parentheses show the data obtained from the test by using the dosage other than 100 mg/kg body weight. Further, the values indicated with Δ marks show 50% effective dose, ED50 (mg/kg body weight).

[4] = tested on: Wistar strain of male rats; assay: Anti-pyretic activity (dry-yeast-induced fever); assay type: in vivo, rat (Wistar); conditions: oral (dose not given), up to 4 hours after administration
Description: as §1
According to the method reported by Tanabe [Folia Pharmacologia Japonica, Vol. 73, pp. 803 (1977)], the Wistar strain of male rats (150-180 g, body weight) were used as test animals. The rats were fasted overnight, and 1 ml/100 g (body weight) of 10% dry-yeast suspension were subcutaneously injected on the back of the rats. Five hours after the injection, the test compound was administered orally, then the body temperature of the rat was measured at time sequences. Anti-pyretic activity of the test compound was determined as the FI (febril index) by integrating pyrogenetic curve up to 4 hours after the administration of the test compound with time, and indicated as inhibitory ratio (%) shown by the following formula, [formula]

[5] = tested on: Wistar strain of male rats; assay: Anti-inflammatory activity (acute carrageenin-induced inflammatory test, hindpaw); assay type: in vivo, rat (Wistar)
Description: as §1
According to the method of acute carrageenin-induced inflammatory test [Folia Pharmacologia Japonica, Vol. 56, pp. 575 (1960)], the Wistar strain of male rats (body weight, 150-180 g) were used as test animals. The rats were fasted overnight, 100 mg/kg body weight of the test compound was administered orally, then 1 hour after the administration, 0.1 ml of 1% carrageenin solution, as the inflammation inducing agent, was injected subcutaneously to the hindpaw of the rat and the volume of the hindpaw was measured at time sequences, Anti-inflammatory activity of the test compound was calculated as inflammation inhibitory ratio (%) at 3 hours after the injection of inflammation inducing agent.

[6] = tested on: ddy strain of male mice; assay: Acute toxicity (oral, mice, 7 days observation); assay type: in vivo
Description: as §1, §2

[7] = oral, male ddy mice, 7 days observation, Δ mark, read-out: 50% lethal dose, LD50
[8] = Rattus norvegicus, po, 3 h, read-out: Anti-inflammatory activity, inflammation inhibitory ratio
[9] = Rattus norvegicus, 100 mg/kg oral, 3 hours after carrageenin, read-out: Anti-inflammatory activity, inflammation inhibitory ratio
[10] = Mus musculus, po, read-out: Analgesic activity, acetic acid-induced stretching method, inhibitory ratio
[11] = Mus musculus, read-out: Analgesic activity, Haffner method, inhibitory ratio
[12] = 100 mg/kg oral, 1 hour before acetic acid
[13] = 100 mg/kg oral, 3 hours after carrageenin

CNC(=O)NC(=O)N(C)c1ccccc1 [Compound No. 49, 1,5-dimethyl-1-phenylbiuret]
LD50 at 168 h [1, 7]: 1600 mg/kg
ED50 ([2]; Mus musculus): 34 mg/kg
ED50 ([3]; Mus musculus): 86 mg/kg
Anti-pyretic activity, inhibitory ratio (febril index) [4]: 84%
inhibition in vivo at 100 mg/kg [5, 8]: 32%

CCCNC(=O)N(C)C(=O)N(C)c1ccccc1 [Compound No. 55, 1,3-Dimethyl-1-phenyl-5-n-propylbiuret]
Acute toxicity: death number of mice/number of mice tested ([6]; 1000 mg/kg oral): 1/4
Acute toxicity: death number of mice/number of mice tested ([6]; 1500 mg/kg oral): 4/4
ED50 ([2]; Mus musculus): 80 mg/kg
ED50 ([3]; Mus musculus): 90 mg/kg
Anti-pyretic activity, inhibitory ratio (febril index) [4]: 80%
inhibition in vivo at 100 mg/kg [5, 9]: 73%

CCN(CC)C(=O)N(C)C(=O)Nc1ccccc1 [Compound No. 57, 1,1-diethyl-3-methyl-5-phenylbiuret]
Acute toxicity: death number of mice/number of mice tested ([6]; 2000 mg/kg oral): 1/4
inhibition in vivo at 100 mg/kg [2, 10]: 37.5%
inhibition in vivo at 200 mg/kg [3, 11]: 50%
Anti-pyretic activity, inhibitory ratio (febril index) [4]: 19%
inhibition in vivo at 100 mg/kg [5, 8]: 23%

CN(C)C(=O)N(C)C(=O)Nc1c(F)c(F)cc(F)c1F [compound 9, 1,1,3-Trimethyl-5-(2,3,5,6-tetrafluorophenyl)biuret]
Acute toxicity: death number of mice/number of mice tested ([6]; 500 mg/kg oral): 0/4
Acute toxicity: death number of mice/number of mice tested ([6]; 1000 mg/kg oral): 4/4
Analgesic activity, acetic acid-induced stretching method, inhibitory ratio [2, 12]: 87.5%
Analgesic activity, Haffner method, inhibitory ratio [3]: 50%
Anti-pyretic activity, inhibitory ratio (febril index) [4]: 33%
Anti-inflammatory activity, inflammation inhibitory ratio [5, 13]: 24%

CN(C)C(=O)N(C)C(=O)Nc1cccc(C(F)(F)F)c1 [compound 18, 1,1,3-Trimethyl-5-(3-trifluoromethylphenyl)biuret]
Acute toxicity: death number of mice/number of mice tested ([6]; 1000 mg/kg oral): 0/4
Acute toxicity: death number of mice/number of mice tested ([6]; 2000 mg/kg oral): 4/4
Analgesic activity, acetic acid-induced stretching method, inhibitory ratio [2, 12]: 37.5%
ED50 ([3]; Mus musculus): 64 mg/kg
Anti-pyretic activity, inhibitory ratio (febril index) [4]: 62%
Anti-inflammatory activity, inflammation inhibitory ratio ([5]; 100 mg/kg oral, (2 hours)): 32%

Cc1cccc(NC(=O)N(C)C(=O)N(C)C)c1 [compound 27, 1,1,3-Trimethyl-5-(3-methylphenyl)biuret]
Acute toxicity: death number of mice/number of mice tested ([6]; 2000 mg/kg oral): 2/4
Analgesic activity, acetic acid-induced stretching method, inhibitory ratio [2, 12]: 75%
Analgesic activity, Haffner method, inhibitory ratio [3]: 37.5%
Anti-pyretic activity, inhibitory ratio (febril index) [4]: 31%
Anti-inflammatory activity, inflammation inhibitory ratio [5, 13]: 28%

CCN(C(=O)Nc1ccccc1)C(=O)N(C)C [compound 36, 1,1-Dimethyl-3-ethyl-5-phenylbiuret]
Acute toxicity: death number of mice/number of mice tested ([6]; 1000 mg/kg oral): 0/4
Acute toxicity: death number of mice/number of mice tested ([6]; 2000 mg/kg oral): 3/4
Analgesic activity, acetic acid-induced stretching method, inhibitory ratio [2, 12]: 62.5%
inhibition in vivo at 100 mg/kg [3, 11]: 62.5%
Anti-pyretic activity, inhibitory ratio (febril index) [4]: 12%
Anti-inflammatory activity, inflammation inhibitory ratio [5, 13]: 23%

CCCCN(C(=O)Nc1ccccc1)C(=O)N(C)C [compound 38, 1,1-Dimethyl-3-n-butyl-5-phenylbiuret]
Acute toxicity: death number of mice/number of mice tested ([6]; 1000 mg/kg oral): 0/4
Acute toxicity: death number of mice/number of mice tested ([6]; 2000 mg/kg oral): 3/4
Analgesic activity, acetic acid-induced stretching method, inhibitory ratio [2, 12]: 37.5%
inhibition in vivo at 200 mg/kg [3, 11]: 37.5%
Anti-pyretic activity, inhibitory ratio (febril index) [4]: 18%
inhibition in vivo at 100 mg/kg [5, 9]: 31%

CNC(=O)N(C(=O)N(C)C)c1ccccc1 [compound 39, 1,1,5-Trimethyl-3-phenylbiuret]
LD50 at 168 h [1, 7]: 93 mg/kg
inhibition in vivo at 50 mg/kg [2, 10]: 25%
inhibition in vivo at 50 mg/kg ([3]; Mus musculus, 50 mg/kg oral, read-out: Analgesic activity, Haffner method, inhibitory ratio): 25%
inhibition in vivo at 25 mg/kg [5, 8]: 33%

CN(C)C(=O)N(C(=O)NC1CCCCC1)c1ccccc1 [compound 41, 1,1-Dimethyl-3-phenyl-5-cyclohexylbiuret]
LD50 at 168 h [1, 7]: 1280 mg/kg
inhibition in vivo at 200 mg/kg [2, 10]: 50%
inhibition in vivo at 100 mg/kg [3, 11]: 62.5%

CCN(C)C(=O)NC(=O)NCc1ccccc1 [compound 44, 1-Methyl-1-ethyl-5-benzylbiuret]
LD50 at 168 h [1, 7]: 1400 mg/kg
inhibition in vivo at 200 mg/kg ([2]; Mus musculus, 200 mg/kg oral, read-out: Analgesic activity, acetic acid-induced stretching method, inhibitory ratio): 87.5%
inhibition in vivo at 100 mg/kg [5, 8]: 47%

CCCN(C)C(=O)N(C)C(=O)Nc1ccccc1 [compound 46, 1,3-Dimethyl-1-n-propyl-5-phenylbiuret]
Acute toxicity: death number of mice/number of mice tested ([6]; 1000 mg/kg oral): 1/4
Acute toxicity: death number of mice/number of mice tested ([6]; 2000 mg/kg oral): 4/4
Analgesic activity, acetic acid-induced stretching method, inhibitory ratio ([2]; 60 mg/kg oral): 75%
Analgesic activity, Haffner method, inhibitory ratio [3]: 37.5%
Anti-pyretic activity, inhibitory ratio (febril index) [4]: 44%
Anti-inflammatory activity, inflammation inhibitory ratio ([5]; 100 mg/kg oral, (2 hours)): 26%

CCCNC(=O)NC(=O)N(C)c1ccccc1 [compound 51, 1-Methyl-1-phenyl-5-n-propylbiuret]
Acute toxicity: death number of mice/number of mice tested ([6]; 500 mg/kg oral): 1/4
Acute toxicity: death number of mice/number of mice tested ([6]; 1000 mg/kg oral): 2/4
inhibition in vivo at 100 mg/kg [2, 10]: 37.5%
inhibition in vivo at 100 mg/kg [3, 11]: 87.5%
Anti-pyretic activity, inhibitory ratio (febril index) [4]: 164%
inhibition in vivo at 100 mg/kg [5, 8]: 60%

CCCCNC(=O)NC(=O)N(C)c1ccccc1 [compound 52, 1-Methyl-1-phenyl-5-n-butylbiuret]
Acute toxicity: death number of mice/number of mice tested ([6]; 1000 mg/kg oral): 0/4
Acute toxicity: death number of mice/number of mice tested ([6]; 2000 mg/kg oral): 3/4
inhibition in vivo at 100 mg/kg ([2]; Mus musculus, 100 mg/kg oral, 1 hour before acetic acid, read-out: Analgesic activity, acetic acid-induced stretching method, inhibitory ratio): 62.5%
inhibition in vivo at 100 mg/kg [3, 11]: 50%
Anti-pyretic activity, inhibitory ratio (febril index) [4]: 104%
inhibition in vivo at 100 mg/kg [5, 9]: 48%

CCN(C(=O)N(C)C(=O)NC)c1ccc(Cl)cc1 [compound 60, 1-Ethyl-1-(4-chlorophenyl)-3,5-dimethylbiuret]
Acute toxicity: death number of mice/number of mice tested ([6]; 1000 mg/kg oral): 1/4
Acute toxicity: death number of mice/number of mice tested ([6]; 2000 mg/kg oral): 3/4
inhibition in vivo at 100 mg/kg [2, 10]: 75%
inhibition in vivo at 100 mg/kg [3, 11]: 50%
Anti-pyretic activity, inhibitory ratio (febril index) [4]: 88%
inhibition in vivo at 100 mg/kg [5, 8]: 33%

CCN(C(=O)N(C)C(=O)NC)c1ccc(C)cc1 [compound 62]
LD50 at 168 h ([1]; po): 1480 mg/kg
inhibition in vivo at 100 mg/kg [2, 10]: 62.5%
inhibition in vivo at 100 mg/kg [3, 11]: 37.5%
Anti-pyretic activity, inhibitory ratio (febril index) [4]: 18%

CCCN(C(=O)N(C)C(=O)NC)c1ccccc1 [compound 63, 1-n-Propyl-1-phenyl-3,5-dimethylbiuret]
Acute toxicity: death number of mice/number of mice tested ([6]; 1000 mg/kg oral): 3/4
Acute toxicity: death number of mice/number of mice tested ([6]; 2000 mg/kg oral): 4/4
inhibition in vivo at 100 mg/kg [2, 10]: 50%
inhibition in vivo at 100 mg/kg [3, 11]: 50%
Anti-pyretic activity, inhibitory ratio (febril index) [4]: 76%
inhibition in vivo at 100 mg/kg [5, 9]: 58%

CCCCN(C(=O)N(C)C(=O)NC)c1ccccc1 [compound 64, 1-n-Butyl-1-phenyl-3,5-dimethylbiuret]
Acute toxicity: death number of mice/number of mice tested ([6]; 500 mg/kg oral): 1/4
Acute toxicity: death number of mice/number of mice tested ([6]; 1000 mg/kg oral): 2/4
inhibition in vivo at 100 mg/kg [2, 10]: 25%
inhibition in vivo at 100 mg/kg [3, 11]: 37.5%
Anti-pyretic activity, inhibitory ratio (febril index) [4]: 50%
inhibition in vivo at 100 mg/kg [5, 8]: 43%

CN(C(=O)Nc1ccccc1)C(=O)N1CCCCC1 [compound 70, 1,1-Pentamethylene-3-methyl-5-phenylbiuret]
LD50 at 168 h [1, 7]: 515 mg/kg
inhibition in vivo at 100 mg/kg [2, 10]: 62.5%
inhibition in vivo at 100 mg/kg [3, 11]: 37.5%
